Data taken from patent publication US4950675A, “Pyridine di-mevalono-lactones as inhibitors of cholesterol biosynthesis” (Warner-Lambert Company, priority 1988, dated 1990).
Where a name gives a salt, the structure may show the parent alone.

Experiments:
cholesterol synthesis = test: AICS screen: plasma [14C]cholesterol after oral dosing of cholestyramine-fed rats (inhibition of cholesterol synthesis); assay type: in vivo; conditions: male Sprague-Dawley rats fed 5% cholestyramine; for inhibition at 1 mg/kg: Rattus norvegicus
Experimental: The ability of compound s of the present invention to inhibit the biosynthesis of cholesterol was also measured by a method (designated AICS screen) which utilizes the procedure described by A. W. Alberts et al, Proc. Natl. Acad. Sci., (1980), 77, pp 3957-3961.
In this method male Sprague-Dawley rats (200 g body weight) previously fed 5% cholestyramine for three days were randomly divided into groups (N=5/group) and given a single dose of vehicle (controls) or compound by an oral gavage at the indicated doses. One hour after drug dosing, all rats were injected intraperitoneally with sodium[1-^14 C]-acetate (18.75 μCi/rat in 0.2 ml saline). After 50 minutes, blood samples were taken, plasma obtained by centrifugation, and plasma [^14 C] cholesterol measured after saponification and extraction.

[1] = biological target: sterol synthesis by rat liver homogenate (HMG-CoA reductase); test: CSX screen ("CSI" in Table 2): inhibition of sterol synthesis from 14C-acetate in rat liver homogenate; assay type: biochemical; conditions: 50% inhibition of sterol synthesis over a one-hour period
Experimental: The ability of compound s of the present invention to inhibit the biosynthesis of cholesterol was measured by a method (designated CSX screen) which utilizes the procedure described by R. E. Dugan, et al, Archiv. Biochem. Biophys., (1972), 152, 21-27. In this method, the level of HMG-CoA enzyme activity in standard laboratory rats is increased by feeding the rats a chow diet containing 5% cholestyramine for four days, after which the rats are sacrificed.
The rat livers are homogenized, and the incorporation of […] into nonsaponifiable lipid by the rat liver homogenate is measured. The micromolar concentration of compound required for 50% inhibition of sterol synthesis over a one-hour period is measured, and expressed as an IC50 value.

SMILES: CCc1nc(CC)c(/C=C/C2CC(O)CC(=O)O2)c(-c2ccc(F)cc2)c1/C=C/C1CC(O)CC(=O)O1 (stereo not drawn) [6,6'-[2,6-diethyl-4-(4-fluorophenyl)-3,5-pyridinediyl]di[2,1-ethenediyl]bis[4α,6β(E)][tetrahydro-4-hydroxy-2H -pyran-2-one]]
- inhibition at 1 mg/kg (cholesterol synthesis; Table 1, single oral gavage): -3%

SMILES: CC(C)c1nc(C(C)C)c(/C=C/C2CC(O)CC(=O)O2)c(-c2ccc(F)cc2)c1/C=C/C1CC(O)CC(=O)O1 (stereo not drawn) [6,6'-[[2,6-bis(1-methylethyl)-4-(4-fluorophenyl)-3,5-pyridinediyl]di-1,2-ethenediyl]bis [4α,6B(E)] tetrahydro-4-hydroxy-2H-pyran-2-one]]
- inhibition at 1 mg/kg (cholesterol synthesis; Table 1, single oral gavage): -65%

SMILES: CCc1nc(CC)c(/C=C/C(O)CC(O)CC(=O)O)c(-c2ccc(F)cc2)c1/C=C/C(O)CC(O)CC(=O)O (stereo not drawn) [[R*,S*(E)]7,7'-[2,6-diethyl-4-(4-fluorophenyl)-3,5-pyridinediyl]bis[3,5-dihydroxy-6-heptenoic acid, disodium salt]]
- inhibition at 1 mg/kg (cholesterol synthesis; Table 2, single oral gavage): -16%
- IC50 [1]: 32 nM

SMILES: CC(C)c1nc(C(C)C)c(C=CC(O)CC(O)CC(=O)[O-])c(-c2ccc(F)cc2)c1C=CC(O)CC(O)CC(=O)[O-].[Na+].[Na+] (stereo not drawn) [[R*,S*(E)]-7,7'-[2,6-bis(1-methylethyl)-2,4-(4-fluorophenyl)-3,5-pyridinediyl]bis [3,5-dihydroxy-6-heptenoio acid, disodium salt]]
- AICS % Inhibition of Cholesterol Synthesis (cholesterol synthesis; Table 2, 1.0 mg/kg, single oral gavage): -21%
- IC50 [1]: 5.6 nM
